Consider two molecules from US5856166A, “Streptomyces proteases and methods for improved secretion of recombinantly-expressed proteins” (Cangene Corporation, priority 1994, dated 1999).

SMILES strings stand for the structures. pKi: −log10 of the molar value. Entries after “also recorded” stand apart in the source; their conditions may differ. Where a SMILES comes first, the peptide text is derived from it. The star is where a group is joined. CH2Cl = ClC* Bounds are passed on as bounds.

For data set [1], the target named is T1, Tap (tripeptidyl aminopeptidase) (Streptomyces lividans, UniProt Q54410).
T1 construct: An autolytic tripeptide cleavage removing APA after signal peptide removal would yield the N-terminal found for the secreted protease; made in house; host or cells: Streptomyces lividans 66 (wild-type strain, native secreted enzyme purified from the broth)
T1 sequence (Q54410 40-537): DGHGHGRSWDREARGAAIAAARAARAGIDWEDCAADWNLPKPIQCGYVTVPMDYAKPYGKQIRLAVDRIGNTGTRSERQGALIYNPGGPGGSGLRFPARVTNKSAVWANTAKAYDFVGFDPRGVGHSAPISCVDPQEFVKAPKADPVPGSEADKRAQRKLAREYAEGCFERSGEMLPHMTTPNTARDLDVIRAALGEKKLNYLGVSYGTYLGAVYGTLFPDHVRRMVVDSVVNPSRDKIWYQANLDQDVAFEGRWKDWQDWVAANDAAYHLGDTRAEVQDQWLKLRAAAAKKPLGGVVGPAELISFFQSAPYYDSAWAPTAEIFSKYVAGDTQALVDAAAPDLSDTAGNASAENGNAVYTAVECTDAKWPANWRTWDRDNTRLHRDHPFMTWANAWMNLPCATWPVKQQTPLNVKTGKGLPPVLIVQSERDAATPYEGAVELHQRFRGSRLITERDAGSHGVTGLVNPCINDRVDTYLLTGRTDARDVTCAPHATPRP
In words: Inactivation of Tap by APACMK assayed with APA-pNA, determination of kinetic constants. The format is biochemical, S. lividans 66. As to the method:
The concentration of Tap in the inactivations was 1.0 uM. The inactivation and assay were conducted as described in Example 8. In FIG. 6, (O)=2.70 uM APACMK; (Δ)=2.16 uM APACMK; (.quadrature.)=1.73 uM APACMK; (*)=1.38 uM APACMK; (+)=No APACMK.
The methods employed are described in Examples 6, 7, and 8.
A stock solution of 10 nM Tap in 100mM Tris-HCl, pH 8.0 was prepared. Serial dilutions of 210 uM, 21 uM, 2.1 uM, 210 nM, 21 nM, and 2.1 nM APACMK (Example 5) were prepared. To the microtiter well, 25 ul of Tap followed by 25 ul of an APACMK dilution or distilled water, for an uninhibited control, were added. The assays were incubated for 20 minutes at 22° C. 50 ul 1.6 mM APA-pNA were added to each well. The absorbance was read at 405 nm then incubated at 37° C. The change in absorbance at 405 nm was read after 15 and 60 minutes of incubation.
A stock solution of 1.1 uM Tap in 50 mM Tris-HCl, pH 8.0 was prepared. APACMK stock solutions of 11 uM, 13.8 uM, 17.3 uM, 21.7 uM, 27.0 uM, 54.0 uM, 108 uM, and 1.08 mM were prepared. The Substrate Solution was 50 mM Tris-HCl, pH 8.0, 0.8 mM APA-pNA. The inactivation was performed by placing 90 ul of Tap […] in a 1.5 ml Eppendorf tube on ice and adding 10 ul of water (uninhibited control) or 10 ul of APACMK. A 10 ul aliquot was removed immediately and was assayed by adding it to a cuvette containing 390 ul Substrate Solution at 22° C. The initial velocity was obtained from the change in absorbance at 405 nm during the first 10 seconds of the assay. Additional aliquots were removed at time points and assayed by the same method. At APACMK concentrations greater than 5.0 uM in the incubation, it was not possible to remove an aliquot from the incubation before 90% inactivation occurred.

The target of data set [2] is T1, Tap (tripeptidyl aminopeptidase). In words: Cleavage of GM-CSF by Tap, native gel electrophoresis. The format is biochemical, S. lividans 66. As to the method:
The assay was performed as described in Example 7. The Tap concentration in the assays was 5 nM. Lane 1=GM-CSF standard; Lane 2=GM-CSF after digestion with Tap in the absence of APACMK; Lanes 3 and 4=150 uM APACMK; Lanes 5 and 6=15 uM APACMK; Lanes 7 and 8=1.5 uM APACMK; Lanes 9 and 10=150 nM APACMK; Lanes 11 and 12=15 nM APACMK; Lanes 13 and 14=1.5 nM APACMK; Lanes 15 and 16=150 pM APACMK.
To 10 ul of rhGM-CSF (10 ug, Cangene) and 20 ul 20 mM Tris-HCl, pH 8.0, 20 ul of Tap were added. The assays were incubated at 37° C. for 2 hrs. 20 ul of 125 mM Tris-HCl, pH 6.8, 0.1% bromophenol blue in 50% aqueous glycerol were added. Products were separated by native gel electrophoresis at constant current on a 17% polyacrylamide gel by a modification of the method of Davies (Davies, 1964) in which the pH of all buffers was modified with H2 SO4. Products were visualized by staining with Coomassie Blue G-250 (see FIG. 1A).
A stock solution of 10 nM Tap in 20 mM Tris-HCl, pH 8.0 was prepared. Serial dilutions of 210 uM, 21 uM, 2.1 uM, 210 nM, 21 nM, and 2.1 nM APACMK (Example 5) were prepared. To 20 ul Tap, 20 ul of an APACMK dilution (or water for an uninhibited enzyme control) were added and incubated at 22° C. for 30 minutes. 10 ul of GM-CSF (1 ug/ul, Cangene) were added and incubated at 37° C. for 2 hours. Products were analyzed by native gel electrophoresis as described in Example 2.

The target in data set [3] is T2, Tap (Streptomyces lividans, UniProt Q54410).
T2 construct: 100 ml of media was inoculated in 500 ml baffle-bottom flasks with 100 ul of S. lividans 66 working seed bank material; endogenous in cells; host or cells: Streptomyces lividans 66
T2 sequence (Q54410 40-537): T1 sequence (Q54410 40-537)
In words: Inhibition of Tap by APACMK during fermentation of S. lividans (GM-CSF(-3) formation). The class given is cell-based, S. lividans 66. Conditions: 10 uM APACMK added after 25 hours; sampled to 48 hours. As to the method: When APACMK and GM-CSF were added to the protease-containing broth from S. lividans fermentations, the formation of the GM-CSF(-3) degradation product was inhibited. Lane 1=Standard containing GM-CSF and GM-CSF(-3). Lanes 2-6 show a fermentation in the presence of 10 uM APACMK. Lane 2=25 hours growth; Lane 3=27 hours growth; Lane 4=29 hours growth; Lane 5=31 hours growth; Lane 6=48 hours growth. Lanes 7-11 show a fermentation without APACMK. Lane 7=25 hours growth; Lane 8=27 hours growth; Lane 9=29 hours growth; Lane 10=31 hours growth; Lane 11=48 hours growth. GM-CSF degradation was analyzed by native gel electrophoresis.
(§1) 100 ml of media was inoculated in 500 ml baffle-bottom flasks with 100 ul of S. lividans 66 working seed bank material. The cultures were grown in a New Brunswick gyratory incubator at 32° C. and 240 rpm. The cultures were sampled at 25, 27, 29, 31, and 48 hours post-inoculation and analyzed by native gel electrophoresis (see FIG. 7). Following removal of the 25 hour sample, 100 mM APACMK in sterile water were added to yield a final concentration of 10 uM. A control flask without APACMK was retained.

For data set [4], the system named is S. lividans 66. The experiment in a line: Cell growth of S. lividans fermentation in the presence of APACMK. The format is cell-based. The settings on record: 10 uM APACMK. Here is the method: as §1
In data set [5] the target is T1, Tap (tripeptidyl aminopeptidase). In words: Inhibition of TAP in the APA-pNA assay (protease inhibitor survey, Table I). The format is biochemical, S. lividans 66. Here is the method:
The protease and inhibitor were preincubated for 15 minutes at 22° C. Substrate was added and the mixture was incubated at 37° C. Activity was measured by monitoring the change in absorbance at λ=405 nm.
The assay was conducted in a 96 well microtiter plate. To each well in the assay, 50 ul 100 mM Tris-HCl, pH 8.0, were added followed by 25 ul 3.2 mM APA-pNA. 25 ul of Tap were added to the wells and the absorbance was read at 405 nm. The assays were incubated at 37° C. for 2 hours. The absorbance was read at 405 nm. The activity (release of p-nitroaniline) was calculated from the change in absorbance.

For data set [6] the target is unchanged. In words: Cleavage of IL-3 by Tap after PMSF treatment, isoelectric focusing. The format is biochemical, S. lividans 66. Conditions: Tap preincubated with PMSF 30 minutes at 22° C.; incubation up to 4 hours at 37° C. As to the method:
Lanes 1-4 show the incubation of IL-3 with TAP-S that has been treated with PMSF. Lane 1=4 hrs; Lane 2=2 hours; Lane 3=1 hr.; Lane 4=0 hours. Lanes 5-8 show the incubation of IL-3 with uninhibited Tap. Lane 5=4 hrs.; Lane 6=2 hrs.; Lane 7=1 hrs.; Lane 8=0 hrs. Lane 9 is a human carbonic anhydrase marker, pI=7.4. Lane 10 contains pI markers. […] The enzyme is not affected by sulfhydryl reagents, chelators or aspartyl protease inhibitors (Table I).
To 50 ul 20 mM Tris-HCl, pH 8.0, 40 ul rhIL-3 (2.5 ug/ul, Cangene) was added followed by 10 ul Tap. The assays were incubated at 37° C.. 25 ul aliquots were withdrawn at the desired time points and frozen on crushed dry ice. The products were separated by isoelectric focusing from pH 3-10 using Pharmalyte 3-10 (Pharmacia) ampholytes (FIG. 4). Products were visualized by staining with Coomassie Blue G-250.
Tap stock (Example 1) was diluted 100-fold with 20 mM Tris-HCl, pH 8.0. A fresh solution of 80 mM PMSF was prepared in isopropanol (iPrOH). A Stock Buffer of 20 mM Tris-HCl, pH 8.0 was prepared. Four preincubations were prepared as follows.
These were incubated at 22° C. for 30 minutes. When the preincubation was complete, 40 ul rhIL-3 (2.5 ug/ul, Cangene) were added and incubation was initiated at 37° C.. […] When the sampling process was complete, the products were analyzed by isoelectric focusing from pH 3-10 (Example 2).

[7] abbreviates: inactivation of Tap, APA-pNA as substrate.

The term inhibition denotes how much of the control response was suppressed. As usually defined, the pKi is −log10 of the Ki, conventionally taken in molar units. High values mean a low Ki, low ones a high Ki. For orientation: kinact means the maximal first-order rate at which the target is inactivated. Consider `C[C@H](N)C(=O)N1CCC[C@H]1C(=O)N[C@@H](C)C(=O)CCl` [APACMK, L-alanyl-L-prolyl-L-alanine chloromethylketone] (H-Ala-Pro-Ala-CH2Cl), for which the “effect on release of p-nitroaniline from APA-pNA by Tap” value in data set [1] was “stopped the release of p-nitroaniline; also recorded: inactivated Tap at very low concentrations”. The inhibition at 2.7 µM in data set [1] (0.1 h, within 6 minutes at 0° C., inhibitor concentration 2.7 uM, inhibitor/enzyme molar ratio 2.7) is over 99%. Moreover, in data set [1] (setting [7]), the pKi was 5.48 and the kinact was 0.00233 s⁻¹. Moreover, the “effect on cleavage of GM-CSF by Tap” value in data set [2] is “stopped the cleavage of GM-CSF; also recorded: inactivated Tap at very low concentrations”. Also, the “formation of GM-CSF(-3) degradation product in S. lividans fermentation” value in data set [3] is given as “prevented cleavage of GM-CSF; also recorded: inhibited; also recorded: significantly reduced formation of GM-CSF(-3)”. Besides, the “cell growth during fermentation” value in data set [4] was “did not significantly retard the rate of cell growth; also recorded: did not inhibit cell growth”.
`O=S(=O)(F)Cc1ccccc1` [PMSF, phenylmethanesulfonyl fluoride]: the “effect on cleavage of APA-pNA by Tap” value in data set [5] (Tap treated with PMSF) is “inhibited”. In addition, the “Residual Activity” value in data set [5] (inhibitor 1.6 mM, preincubated 15 minutes at 22° C., substrate APA-pNA, enzyme only = 100) was 7. Further, the “effect on cleavage of GM-CSF by Tap” value in data set [2] was “inhibited”. Moreover, the “effect on cleavage of IL-3 by Tap” value in data set [6] is “inhibited; also recorded: intact IL-3 is clearly detected after 4 hours”.
